# Tests used:
# [1] = Plasma stability test, rat plasma; conditions: for Remaining rate (%) 0 min / Remaining rate (%) 15 min / Remaining rate (%) 30 min / Remaining rate (%) 60 min / Remaining rate (%) 120 min: Rat plasma, 37°C; for half-life: rat, plasma
# From the text: The purpose of this experiment was to detect the stability of the example compounds in plasma of mouse, rat, dog and human.
# (§1) Liquid chromatography-mass spectrometer, centrifuge, vortexer, pipette, continuous dispenser, 96-well plate, 50% methanol aqueous solution, acetonitrile solution containing internal standard, blank matrix (plasma of rat, dog, or human), Propantheline (propantheline bromide), Mevinolin (lovastatin), and test compound.
# (§2) After whole blood was collected from animals or humans, it was placed in a test tube containing an anticoagulant and centrifuged at 3500 rpm for 10 min to collect the upper pale yellow plasma.
# (§3) The compound was weighed and the stock solution was formulated with DMSO and the working solution was formulated with 100 mM phosphate buffer.
# 2.36 mg of propantheline bromide was weighed and diluted with 1 mL of DMSO into a 10 mM stock solution; 10 µL of 10 mM stock solution was pipetted into 1 mL of 100 mM phosphate buffer to achieve a final concentration of 100 µM.
# 4.05 mg of lovastatin was weighed and diluted with 1 mL of DMSO into a 10 mM stock solution; 10 µL of 10 mM stock solution was pipetted into 1 mL of 100 mM phosphate buffer to achieve a final concentration of 100 µM.
# • 1) In a 96-well plate, 285 µL of plasma and 15 µL of 10 µM compound (test compound) were added in sequence and incubated at 37°C. • 2) 40 µL was taken at 0, 15, 30, 60, 90, and 120 min (the sampling point can be fine-tuned) and 160 µL of acetonitrile stop solution containing internal standard was add. • 3) After centrifugation (3500 rpm, 10 min), 50 µL of supernatant was taken, and 50 µL of DDH2O added for dilution and then the obtained mixture was injected into LC-MS/MS.
# • Instruments: Shimadzu LC-20 AD • Chromatographic column: Phenomenex Gemiu ® C18 (50*4.6 mm, 5 µm particle size); • mobile phase: A: Acetonitrile, B: 0.1% formic acid solution 0-8 min: 5% A→95% A, 2.0-2.1 min: 90%A→5% A; Flow rate: 0.8 mL/min; Run time: 5.0 min; Injection volume: 5 µL.
# (§4) • Instrument: API4000 liquid chromatography-mass spectrometer, AB Company, USA; • the ion source was electrospray ionization source (ESI); • drying gas (N2) temperature was 500°C; • electrospray voltage was 5500V; • the detection method was positive ion detection; • the scanning method was selected reaction monitoring (MRM); • the scanning time was 0.1s.
# [2] = Plasma stability test, mouse plasma; format: in vitro ADME; conditions: Mouse plasma, 37°C; for half-life: read-out: t1/2 (converted);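 on all read-outs here: test compound quantified by LC-MS using positive-mode electrospray ionization and MRM scanning, with an internal standard added in acetonitrile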
# Method: as §1, §2, §3, §4
# [3] = Plasma stability test, dog plasma; format: in vitro ADME; conditions: Dog plasma, 37°C; for half-life: read-out: t1/2 (converted);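 on all read-outs here: parent compound left in dog plasma quantified by LC-MS with positive electrospray ionization, selected reaction monitoring and an internal standard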
# Method: as §1, §2, §3, §4
# [4] = Plasma stability test, human plasma; format: in vitro ADME; conditions: Human plasma, 37°C; for half-life: read-out: t1/2 (converted);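 on all read-outs here: test compound incubated in human plasma, quantified by LC-MS/MS (positive-ion ESI, MRM) against an internal standard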
# Method: as §1, §2, §3, §4
# GP2D = assay: Inhibition of proliferation of KRAS G12D mutant tumor cell line GP2D (CellTiter-Glo); conditions: Homo sapiens, GP2d, 72 h, read-out: GP2D IC50
# Method: Experimental method: When SNU-1, HPAF-II, Panc0403, AsPC-1 or GP2D cells were cultured to the appropriate confluence, and the SNU-1, HPAF-II, Panc0403, AsPC-1 or GP2D cells were collected. The cells were adjusted to the appropriate cell density using complete culture medium, the cell suspension was plated onto a 96-well plate at 90 µL per well, and the plate was placed in the incubator at 37°C and 5% CO2 for adherent culture overnight. Solutions of the compound with different concentrations were formulated using DMSO and culture medium. A vehicle control was set up. […] Then, CellTiter-Glo solution was added, and the obtained mixture was shaken and mixed evenly, incubated in the dark for 10 min, and read with a BioTek Synergy H1 microplate reader. […] Experimental data processing method: The luminescence signal value was used to calculate the inhibition rate. Graphpad Prism software was used to fit the concentration and inhibition rate to a nonlinear regression curve, so as to obtain the IC50 value.
Structure (SMILES),Remaining rate (%) 0 min [1],Remaining rate (%) 15 min [1],Remaining rate (%) 30 min [1],Remaining rate (%) 60 min [1],Remaining rate (%) 120 min [1],half-life [1],Remaining rate (%) 0 min [2],Remaining rate (%) 15 min [2],Remaining rate (%) 30 min [2],Remaining rate (%) 60 min [2],Remaining rate (%) 120 min [2],half-life [2],Remaining rate (%) 0 min [3],Remaining rate (%) 15 min [3],Remaining rate (%) 30 min [3],Remaining rate (%) 60 min [3],Remaining rate (%) 120 min [3],Remaining rate (%) 0 min [4],Remaining rate (%) 15 min [4],Remaining rate (%) 30 min [4],further results
"[2H]C([2H])(Oc1nc2c3c(nc(-c4cc(O)cc5ccc(F)c(C#C)c45)c(F)c3n1)O[C@@H](C)[C@@H]1[C@@H]3CC[C@H](CN21)N3)C1(C([2H])([2H])N2CCC(=CF)CC2)CC1 [Example 291, 5-ethynyl-6-fluoro-4-((5S,5aS,6S,9R)-1-fluoro-12-((1-((4-(fluoromethylene)piperidin-1-yl)methyl-d2)cyclopropyl)methoxy-d2)-5-methyl-5a,6,7,8,9,10-hexahydro-5H-4-oxa-3,10a,11,13,14-pentaaza-6,9-methylnaphtho[1,8-ab]hept-2-yl)naphthalen-2-ol]",100.00%,99.67%,102.83%,103.48%,98.20%,38.3 h,100.00%,97.50%,82.58%,81.82%,63.23%,3.08 h,100.00%,104.39%,94.89%,103.00%,99.65%,100.00%,102.43%,95.46%,half-life [3]: 94.6 h; Remaining rate (%) 60 min [4]: 105.44%; Remaining rate (%) 120 min [4]: 96.68%; half-life [4]: 115 h; IC50 (GP2D): 150 pM
[2H]C([2H])([2H])[C@@H]1Oc2nc(-c3cc(O)cc4ccc(F)c(C#C)c34)c(F)c3nc(OCC4(CN5CCC(=CF)CC5)CC4)nc(c23)N2C[C@H]3CC[C@H](N3)[C@@H]12 [Example 164],100.00%,97.07%,93.36%,97.21%,95.03%,91.6 h,100.00%,99.34%,95.56%,101.65%,100.99%,149 h,100.00%,92.40%,94.94%,96.81%,91.42%,100.00%,97.48%,91.02%,half-life [3]: 51.9 h; Remaining rate (%) 60 min [4]: 93.68%; Remaining rate (%) 120 min [4]: 89.66%; half-life [4]: 30.3 h; IC50 (GP2D): 320 pM
"C#Cc1c(F)ccc2cc(O)cc(-c3nc4c5c(nc(OCC6(CN7CCC(=CF)CC7)CC6)nc5c3F)N3C[C@H]5CC[C@H](N5)[C@H]3[C@H](C)O4)c12 [Example 129, 5-ethynyl-6-fluoro-4-((5S,5aS,6S,9R)-1-fluoro-12-((1-((4-(fluoromethylene)piperidin-1-yl)methyl)cyclopropyl)methoxy)-5-methyl-5a,6,7,8,9,10-hexahydro-5H-4-oxa-3,10a,11,13,14-pentaaza-6,9-methylnaphtho[1,8-ab]hept-2-yl)naphthalen-2-ol]",100.00%,110.22%,98.09%,106.43%,95.62%,41.2 h,100.00%,97.30%,103.47%,104.94%,91.62%,37.6 h,100.00%,100.48%,100.22%,97.42%,110.22%,100.00%,109.00%,97.59%,t1/2 [3]: ∞; t1/2 [4]: ∞; Remaining rate (%) 60 min [4]: 101.54%; Remaining rate (%) 120 min [4]: 105.91%; IC50 (GP2D): 170 pM

# Source: patent EP4635958A1, “PYRIMIDINE-CONTAINING POLYCYCLIC DERIVATIVE INHIBITOR, AND PREPARATION METHOD THEREFOR AND USE THEREOF” (Shanghai Hansoh Biomedical Co., Ltd., priority 2022, dated 2024)
